Data taken from the supplement of paper PMC10883282.

Columns and labels:
Assay in all cases: relative viability vs DMSO control (72 h) (fraction); higher = more viable cells
HT1080 = system: HT1080
Procedure, shortened: (§1)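 Sarcoma cell lines were seeded in 384-well plates at densities set to reach 80–90% confluence. After 24 h, 2.5 µl of serially diluted compound was added (source plates 10 mM to 0.0002 mM), and plates were held 72 h at 37 °C, 5% CO2, with 0.1% DMSO vehicle and a 5 µM positive control. Relative viability came from ATPLite readings as percent growth, averaged over up to triplicate wells. Data were rescaled so full viability equals 1 and none equals 0.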

KHOS-NP = system: KHOS-NP
Procedure, shortened: as §1

SK-ES-1 = system: SK-ES-1
Procedure, shortened: as §1

RD-ES = system: RD-ES
Procedure, shortened: as §1

SW982 = system: SW982
Procedure, shortened: as §1

KHOS-240S = system: KHOS-240S
Procedure, shortened: as §1

G401 = system: G401
Procedure, shortened: as §1

A204 = system: A204
Procedure, shortened: as §1

SW1353 = system: SW1353
Procedure, shortened: as §1

SW872 = system: SW872
Procedure, shortened: as §1

SYO-1 = system: SYO-1
Procedure, shortened: as §1

SW684 = system: SW684
Procedure, shortened: as §1

O=C(Nc1ccc(OC(F)(F)Cl)cc1)c1cnc(N2CC[C@@H](O)C2)c(-c2cc[nH]n2)c1 [Asciminib]
Details	relative viability
A204, 0.00017 µM	1.02
A204, 0.00051 µM	1.04
A204, 0.00152 µM	1.05
A204, 0.00457 µM	1.04
A204, 0.01372 µM	1.04
A204, 0.04115 µM	1.05
A204, 0.1235 µM	1.06
A204, 0.3704 µM	1.06
A204, 1.111 µM	1.04
A204, 3.333 µM	0.799
A204, 10 µM	0.449
G401, 0.00017 µM	0.949
G401, 0.00051 µM	0.921
G401, 0.00152 µM	0.928
G401, 0.00457 µM	0.967
G401, 0.01372 µM	0.961
G401, 0.04115 µM	0.981
G401, 0.1235 µM	0.981
G401, 0.3704 µM	0.99
G401, 1.111 µM	0.9822
G401, 3.333 µM	0.909
G401, 10 µM	0.831
HT1080, 0.00017 µM	0.999
HT1080, 0.00051 µM	1.06
HT1080, 0.00152 µM	1
HT1080, 0.00457 µM	0.999
HT1080, 0.01372 µM	0.968
HT1080, 0.04115 µM	1
HT1080, 0.1235 µM	1.03
HT1080, 0.3704 µM	1
HT1080, 1.111 µM	0.998
HT1080, 3.333 µM	0.978
HT1080, 10 µM	0.916
KHOS-240S, 0.00017 µM	1.04
KHOS-240S, 0.00051 µM	1.01
KHOS-240S, 0.00152 µM	1.02
KHOS-240S, 0.00457 µM	1.02
KHOS-240S, 0.01372 µM	1.03
KHOS-240S, 0.04115 µM	1.009
KHOS-240S, 0.1235 µM	0.9965
KHOS-240S, 0.3704 µM	1.04
KHOS-240S, 1.111 µM	1.03
KHOS-240S, 3.333 µM	0.977
KHOS-240S, 10 µM	0.632
KHOS-NP, 0.00017 µM	1.04
KHOS-NP, 0.00051 µM	1.06
KHOS-NP, 0.00152 µM	1.06
KHOS-NP, 0.00457 µM	1.04
KHOS-NP, 0.01372 µM	1.061
KHOS-NP, 0.04115 µM	1.04
KHOS-NP, 0.1235 µM	1.06
KHOS-NP, 0.3704 µM	1.025
KHOS-NP, 1.111 µM	0.998
KHOS-NP, 3.333 µM	0.901
KHOS-NP, 10 µM	0.695
RD-ES, 0.00017 µM	0.944
RD-ES, 0.00051 µM	0.942
RD-ES, 0.00152 µM	0.927
RD-ES, 0.00457 µM	0.926
RD-ES, 0.01372 µM	0.908
RD-ES, 0.04115 µM	0.895
RD-ES, 0.1235 µM	0.915
RD-ES, 0.3704 µM	0.889
RD-ES, 1.111 µM	0.852
RD-ES, 3.333 µM	0.849
RD-ES, 10 µM	0.748
SK-ES-1, 0.00017 µM	0.975
SK-ES-1, 0.00051 µM	0.999
SK-ES-1, 0.00152 µM	1
SK-ES-1, 0.00457 µM	1
SK-ES-1, 0.01372 µM	0.992
SK-ES-1, 0.04115 µM	1.01
SK-ES-1, 0.1235 µM	1.01
SK-ES-1, 0.3704 µM	1.02
SK-ES-1, 1.111 µM	0.995
SK-ES-1, 3.333 µM	0.906
SK-ES-1, 10 µM	0.814
SW684, 0.00017 µM	1.09
SW684, 0.00051 µM	1.06
SW684, 0.00152 µM	1.09
SW684, 0.00457 µM	1.09
SW684, 0.01372 µM	1.08
SW684, 0.04115 µM	1.102
SW684, 0.1235 µM	1.16
SW684, 0.3704 µM	1.23
SW684, 1.111 µM	1.18
SW684, 3.333 µM	1.11
SW684, 10 µM	0.627
SW872, 0.00017 µM	0.966
SW872, 0.00051 µM	0.94
SW872, 0.00152 µM	0.939
SW872, 0.00457 µM	0.938
SW872, 0.01372 µM	0.937
SW872, 0.04115 µM	0.978
SW872, 0.1235 µM	0.9486
SW872, 0.3704 µM	1.01
SW872, 1.111 µM	0.991
SW872, 3.333 µM	0.974
SW872, 10 µM	0.93
SW982, 0.00017 µM	0.974
SW982, 0.00051 µM	0.978
SW982, 0.00152 µM	1
SW982, 0.00457 µM	0.975
SW982, 0.01372 µM	1.01
SW982, 0.04115 µM	1.01
SW982, 0.1235 µM	1.01
SW982, 0.3704 µM	1.04
SW982, 1.111 µM	1.05
SW982, 3.333 µM	1.01
SW982, 10 µM	0.858
SW1353, 0.00017 µM	0.946
SW1353, 0.00051 µM	0.958
SW1353, 0.00152 µM	0.936
SW1353, 0.00457 µM	0.9604
SW1353, 0.01372 µM	1.04
SW1353, 0.04115 µM	1.1
SW1353, 0.1235 µM	1.1
SW1353, 0.3704 µM	1.14
SW1353, 1.111 µM	1.11
SW1353, 3.333 µM	1.06
SW1353, 10 µM	0.953
SYO-1, 0.00017 µM	0.92
SYO-1, 0.00051 µM	0.91
SYO-1, 0.00152 µM	0.919
SYO-1, 0.00457 µM	0.927
SYO-1, 0.01372 µM	0.904
SYO-1, 0.04115 µM	0.893
SYO-1, 0.1235 µM	0.866
SYO-1, 0.3704 µM	0.844
SYO-1, 1.111 µM	0.813
SYO-1, 3.333 µM	0.76
SYO-1, 10 µM	0.6731
